Experimental data as given in US11339151B2, “Aliphatic acid amide derivative” (Sumitomo Dainippon Pharma Co., Ltd., priority 2019, dated 2022).

What was measured:
[1] = target: T1, human 5-HT7 receptor (Homo sapiens (Human), UniProt P34969); test: Test 2: antagonist activity for human 5-HT7 receptor (aequorin luminescence, CHO-K1 cells); type: cell-based; conditions: Gα16
Description: (§1) Test 2: Evaluation of Antagonist Activity for Human 5-HT2A Receptor and Human 5-HT7 Receptor
(§2) Aequorin, Gα 16 protein, and each receptor were transiently expressed in CHO-K1 cells (Chinese hamster ovary). The cells were cultivated in a CO2 incubator at 37° C. overnight, seeded into a 384-well plate, and stood at room temperature for 2 hours. Each compound dissolved in DMSO was added thereto, and changes in luminescence were measured by FDSS/μCELL drug discovery screening support system (Hamamatsu Photonics K.K.). As for antagonist activity, inhibitory activity of each compound was calculated by setting the luminescence level of wells to which 10 μmol/L endogenous ligand was added as 100%.

[2] = Test 3-1: metabolic stability test in human hepatic microsome; type: in vitro ADME; conditions: microsome 0.1 mg/mL, test compound 0.1 μmol/L, 37° C., 30 minutes
Description: Test 3-1: Metabolic Stability Test in Human Hepatic Microsome
(§3) The metabolic stability of the present compound in human hepatic microsome was evaluated as mentioned below. Human hepatic microsome was obtained from Xenontech. Human hepatic microsome, NADPH, and each test compound were mixed in 25 mmol/L phosphate buffer solution (pH 7.4) to reach the following concentrations as shown below, and the mixture was incubated at 37° C. for 30 minutes. • Human hepatic microsome: 0.1 mg/mL • NADPH: 3.2 mmol/L • Test compound: 0.1 μmol/L
(§4) The residual ratio of test compound in each sample after 30 minutes was measured by LC-MS, and the metabolic stability in human hepatic microsome was calculated from the following formula. Metabolic stability in human hepatic microsome (mL/min/mg protein)=−LN (residual ratio)/30/0.1

[3] = target: hERG channel (Homo sapiens (Human), UniProt Q12809); test: Test 5: inhibitory activity for hERG channel (whole cell patch clamp, hERG-CHO cells); type: cell-based; conditions: for IC50: hERG-CHO cells, auto patch clamp
Description: Test 5: Evaluation of Inhibitory Activity for hERG Channel
Inhibitory activity of the present compound for hERG channel was measured by whole cell patch clamp method with an auto patch clamp system using CHO cells in which hERG channel involved in human rapidly activating delayed rectifier potassium current (IKr) was forcibly expressed.
hERG-CHO cells purchased from ChanTest Cop. were cultured in a CO2 incubator at 37° C., and dissociated from a flask with trypsin shortly before the measurement of hERG current to prepare a cell suspension.
The cell suspension, the extracellular fluid, the intracellular fluid, and the measurement plate were set in an auto patch clamp system, and hERG current was measured by whole cell patch clamp method. […] Each pulse interval was 15 seconds. The data analysis was carried out with Qube Assay Software (Sophion Sophion). The test was carried out by applying incrementally 4 concentrations of each test compound, and the average of the maximum peak tail currents which were obtained from the last 3 stimulations in each concentration was determined as the evaluated data.

[4] = Test 10: hepatotoxic risk, dansyl glutathione (dGSH) trapping assay; type: in vitro ADME; conditions: human hepatic microsome, 37° C., 60 minutes; N.D. means below detection limit
Description: Test 10: Evaluation of Hepatotoxic Risk (Dansyl Glutathione (dGSH) Trapping Assay)
The present compound was metabolized in hepatic microsome, and from the resulted metabolite, reactive metabolite which reacts with dancyl glutathione (dGSH) was detected and quantified as the following method. Measurement was carried out with a screening robot (Tecan) for metabolic reaction, and with a fluorescence detection UPLC system (Waters) for metabolite-dGSH binding concentration.
The present compound was dissolved in DMSO to prepare 10 mmol/L test compound solution. 7.6 mL of potassium phosphate buffer (500 mmol/L, pH 7.4), 1.9 mL of human hepatic microsome (Xenotech, 20 mg protein/mL), and 1.27 mL of pure water were mixed to prepare a microsome solution. To 3.78 mL of the microsome solution was added 0.67 mL of pure water to prepare a microsome (dGSH(−)) solution. To 6.48 mL of the microsome solution was added 1.14 mL of the dGSH solution (20 mmol/L) to prepare a microsome (dGSH(+)) solution. […] 33 mg of tris(2-carboxyethyl)phosphine (TECP) was dissolved in 115 mL of methanol to prepare a reaction stop solution.
12 μL of the test compound solution was mixed with 388 μL of pure water, and the mixture was dispensed in 50 μL each into 6 wells of a 96-well plate. […] To the “reaction group” and “unreacted group” was added the microsome (dGSH(+)) solution, and to the “dGSH-free group” was added the microsome (dGSH(−)) solution in 50 μL each. To the “reaction group” and “dGSH-free group” was added to the cofactor solution, and to the “unreacted group” was added pure water in 50 μL each. After incubated at 37° C. for 60 minutes, the reaction stop solution was added in 450 μL each to stop the reaction. […]
Metabolite-dGSH binding concentration was measured by the following conditions, using a fluorescence detection UPLC system. […]
Fluorescence intensity was corrected with the composition of organic solvent at the time of elution because fluorescence intensity changes depending on the composition of organic solvent.

[5] = Test 3-2: metabolic stability test in human hepatic microsome; type: in vitro ADME; conditions: microsome 0.5 or 1.0 mg/mL, test compound 0.1 μmol/L, 30 or 60 minutes
Description: Test 3-2: Metabolic Stability Test in Human Hepatic Microsome
as §3, with “For more accurate evaluation of the metabolic stability in human hepatic microsome, the metabolic” for “The metabolic”, “evaluated at an appropriate concentration of human hepatic microsome” for “evaluated”, “for 60” for “for 30”, “microsome: 0.5 or 1.0” for “microsome: 0.1”, “• NAPDH:” for “• NADPH:”
as §4, with “of a” for “of”, “30 or 60” for “30”, “ratio)/reaction time/concentration of human hepatic microsome” for “ratio)/30/0.1”

[6] = Test 4: predictive test of human half life; conditions: calculated from rat distribution volume, serum unbound fraction and Test 3-2 stability
Description: Test 4: Predictive Test of Human Half Life
The present compound was intravenously administered to a rat as an aqueous solution of 0.01 mol/L hydrochloric acid. Blood was collected on 5 minutes, 15 minutes, 30 minutes, 1 hour, 2 hours, 4 hours, 6 hours, and 24 hours after the administration. Plasma was obtained from the collected blood, the drug concentration in plasma was measured by LC-MS, and the distribution volume of rat was calculated from the transition of the concentration.
The unbound fraction rate of the present compound in human or rat serum was measured by equilibrium dialysis method.
The half-life in human was calculated according to the following formula using the results of the distribution volume of rat, the unbound fraction rate in human or rat serum, and the metabolic stability in human hepatic microsome obtained in Test 3-2.

[7] = target: T2, human 5-HT2A receptor (Homo sapiens (Human), UniProt P28223); test: Test 2: antagonist activity for human 5-HT2A receptor (aequorin luminescence, CHO-K1 cells); type: cell-based; conditions: Gα16
Description: as §1, §2

[8] = target: T1, human 5-HT7 receptor; test: Test 1: binding activity for human 5-HT7 receptor ([3H]SB-269970, CHO cell membrane fraction); conditions: [3H]SB-269970, room temperature 60 minutes
Description: (§5) Ki value was evaluated from dissociation constant which was calculated from saturated binding tests, and a substrate concentration, and it was used as an index for binding affinity.

[9] = target: human D2 receptor (Homo sapiens (Human), UniProt P14416); test: Test 1: binding activity for human D2 receptor ([3H]Spiperone, CHO cell membrane fraction); conditions: for Ki: [3H]Spiperone, room temperature 60 minutes; for D2 Ki/5-HT2A Ki / D2 Ki/5-HT7 Ki: selectivity ratio
Description: as §5

[10] = target: T2, human 5-HT2A receptor; test: Test 1: binding activity for human 5-HT2A receptor ([3H]Ketanserin, CHO cell membrane fraction); conditions: room temperature 60 minutes
Description: as §5

hERG channel, sequence (Q12809 whole entry): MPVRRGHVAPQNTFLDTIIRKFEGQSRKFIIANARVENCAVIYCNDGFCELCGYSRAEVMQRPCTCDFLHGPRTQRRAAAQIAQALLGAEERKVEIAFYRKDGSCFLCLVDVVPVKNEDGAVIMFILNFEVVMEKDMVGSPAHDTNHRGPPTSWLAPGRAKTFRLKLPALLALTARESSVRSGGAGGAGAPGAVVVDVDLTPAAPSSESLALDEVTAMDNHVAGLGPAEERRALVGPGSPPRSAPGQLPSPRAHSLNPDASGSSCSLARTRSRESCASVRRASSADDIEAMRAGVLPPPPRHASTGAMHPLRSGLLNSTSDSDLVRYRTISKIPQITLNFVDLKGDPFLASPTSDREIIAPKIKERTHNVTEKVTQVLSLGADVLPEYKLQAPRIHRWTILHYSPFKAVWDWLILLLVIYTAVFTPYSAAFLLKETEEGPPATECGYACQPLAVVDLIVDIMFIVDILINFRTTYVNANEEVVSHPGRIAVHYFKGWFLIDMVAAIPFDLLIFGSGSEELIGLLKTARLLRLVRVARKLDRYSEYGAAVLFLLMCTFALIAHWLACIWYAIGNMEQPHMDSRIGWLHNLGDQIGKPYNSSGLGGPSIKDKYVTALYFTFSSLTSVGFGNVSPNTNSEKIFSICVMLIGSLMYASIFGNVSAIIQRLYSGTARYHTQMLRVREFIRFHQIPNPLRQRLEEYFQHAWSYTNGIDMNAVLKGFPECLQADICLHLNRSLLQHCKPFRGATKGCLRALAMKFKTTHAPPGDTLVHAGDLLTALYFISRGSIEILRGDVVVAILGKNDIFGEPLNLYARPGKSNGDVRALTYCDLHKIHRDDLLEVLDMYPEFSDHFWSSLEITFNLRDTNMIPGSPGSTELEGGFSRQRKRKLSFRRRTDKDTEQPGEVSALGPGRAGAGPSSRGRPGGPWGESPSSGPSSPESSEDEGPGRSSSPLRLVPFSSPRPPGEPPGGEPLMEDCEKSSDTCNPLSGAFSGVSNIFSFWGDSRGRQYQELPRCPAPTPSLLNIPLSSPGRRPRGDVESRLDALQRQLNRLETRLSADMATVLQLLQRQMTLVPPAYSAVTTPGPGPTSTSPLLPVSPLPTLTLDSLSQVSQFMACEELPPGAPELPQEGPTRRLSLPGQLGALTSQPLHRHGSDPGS
T2 sequence (P28223 whole entry): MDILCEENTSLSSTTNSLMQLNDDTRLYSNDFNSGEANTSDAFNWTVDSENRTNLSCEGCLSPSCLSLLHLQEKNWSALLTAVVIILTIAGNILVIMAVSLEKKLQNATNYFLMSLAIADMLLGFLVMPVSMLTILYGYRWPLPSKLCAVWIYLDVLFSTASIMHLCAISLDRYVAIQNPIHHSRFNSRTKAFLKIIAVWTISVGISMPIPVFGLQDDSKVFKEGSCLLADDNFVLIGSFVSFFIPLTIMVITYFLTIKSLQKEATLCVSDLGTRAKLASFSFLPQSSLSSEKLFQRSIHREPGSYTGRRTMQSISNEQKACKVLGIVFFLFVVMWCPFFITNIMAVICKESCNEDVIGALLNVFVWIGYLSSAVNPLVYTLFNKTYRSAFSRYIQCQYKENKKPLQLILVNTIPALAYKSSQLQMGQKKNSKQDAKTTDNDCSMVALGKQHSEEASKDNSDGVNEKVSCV
human D2 receptor, sequence (P14416 whole entry): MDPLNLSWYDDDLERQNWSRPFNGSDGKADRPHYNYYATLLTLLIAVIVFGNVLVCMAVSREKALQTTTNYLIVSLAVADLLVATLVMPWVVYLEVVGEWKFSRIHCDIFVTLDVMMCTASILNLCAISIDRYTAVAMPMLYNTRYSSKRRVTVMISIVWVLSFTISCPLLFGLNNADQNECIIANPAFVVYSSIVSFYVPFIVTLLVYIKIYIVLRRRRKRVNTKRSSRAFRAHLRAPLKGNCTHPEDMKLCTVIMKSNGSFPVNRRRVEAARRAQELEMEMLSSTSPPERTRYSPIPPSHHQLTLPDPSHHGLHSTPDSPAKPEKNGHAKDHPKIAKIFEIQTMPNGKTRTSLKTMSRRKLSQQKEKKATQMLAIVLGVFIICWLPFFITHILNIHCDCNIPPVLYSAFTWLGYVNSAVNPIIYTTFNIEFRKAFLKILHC
T1 sequence (P34969 whole entry): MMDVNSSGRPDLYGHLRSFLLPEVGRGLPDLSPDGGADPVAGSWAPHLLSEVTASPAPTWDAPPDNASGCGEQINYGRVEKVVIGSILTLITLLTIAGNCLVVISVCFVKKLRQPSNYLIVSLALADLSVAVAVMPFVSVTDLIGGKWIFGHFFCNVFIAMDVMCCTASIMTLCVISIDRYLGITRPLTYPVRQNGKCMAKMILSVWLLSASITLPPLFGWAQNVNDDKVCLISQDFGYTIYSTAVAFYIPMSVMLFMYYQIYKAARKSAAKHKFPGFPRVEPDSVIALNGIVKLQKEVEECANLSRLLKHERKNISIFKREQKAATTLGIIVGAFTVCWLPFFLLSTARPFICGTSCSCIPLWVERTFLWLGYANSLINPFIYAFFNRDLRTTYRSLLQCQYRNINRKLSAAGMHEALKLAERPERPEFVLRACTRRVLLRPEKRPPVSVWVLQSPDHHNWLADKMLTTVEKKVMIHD

| Compound | IC50 [1] [nM] | Metabolic stability in human hepatic microsome [2] [mL/min/mg protein] | Metabolic stability in human hepatic microsome [5] [mL/min/mg protein] | Predicted half-life [6] [h] | Ki [8] [nM] | Ki [9] [nM] | IC50 [3] [nM] | Metabolite-dGSH binding concentration [4] [µM] | IC50 [7] [nM] | hERG inhibitory IC50 (nmol/L)/5-HT2A Ki (nmol/L) ([3]; ratio) | hERG inhibitory IC50 (nmol/L)/5-HT7 Ki (nmol/L) ([3]; ratio) | Ki [10] [nM] | D2 Ki/5-HT2A Ki [9] | D2 Ki/5-HT7 Ki [9] |
| --- | --- | --- | --- | --- | --- | --- | --- | --- | --- | --- | --- | --- | --- | --- |
| CCN(CCN1CCC(c2noc3cc(F)ccc23)CC1)C(=O)C1(O)CC1 [Example 24] | 41 | <0.05 | – | – | – | – | 5500 | 7.645 | 7 | 5203 | 4988 | – | – | – |
| CCN(CCN1CCC(n2ccc3cc(F)ccc32)CC1)C(=O)C(C)O (centres unmarked) [Example 50] | 81 | <0.05 | – | – | 13.5 | > 1000 | – | – | 49 | – | – | – | – | – |
| CCN(CCN1CCC(c2noc3cc(F)ccc23)CC1)S(=O)(=O)C(C)CO (centres unmarked) [Example 52] | 177 | – | – | – | 333 | > 10000 | – | – | 946 | – | – | 298 | >34 | >30 |
| CCN(CCN1CCC(c2c[nH]c3ccccc23)CC1)S(=O)(=O)CCO [Example 57] | 100 | 0.06 | – | – | 8.7 | 210 | – | – | 56 | – | – | – | – | – |
| CCN(CCN1CCC(c2noc3cc(F)ccc23)CC1)C(=O)C(O)CNC(C)=O (centres unmarked) [Example 71, 3-Acetamide-N-ethyl-N-{2-[4-(6-fluoro-1,2-benzoisoxazol-3-yl)piperidin-1-yl]ethyl}-2-hydroxypropanamide] | – | <0.05 | – | – | – | – | – | 0.132 | – | >4452 | – | – | 99 | 36 |
| CCN(CCN1CCC(c2noc3cc(F)ccc23)CC1)C(=O)C1CN(C)CCC1O (centres unmarked) [Example 76, N-Ethyl-N-{2-[4-(6-fluoro-1,2-benzoisoxazol-3-yl)piperidin-1-yl]ethyl}-4-hydroxy-1-methylpiperidine-3-carboxamide] | 65 | <0.05 | – | – | 14.4 | 193 | > 10000 | – | – | – | – | – | – | – |

Now from value to molecule, other results behind:

| IC50 [1] [nM] | Metabolic stability in human hepatic microsome [2] [mL/min/mg protein] | Metabolic stability in human hepatic microsome [5] [mL/min/mg protein] | Predicted half-life [6] [h] | Ki [8] [nM] | Ki [9] [nM] | Compound | IC50 [3] [nM] | Metabolite-dGSH binding concentration [4] [µM] | IC50 [7] [nM] | hERG inhibitory IC50 (nmol/L)/5-HT2A Ki (nmol/L) ([3]; ratio) | hERG inhibitory IC50 (nmol/L)/5-HT7 Ki (nmol/L) ([3]; ratio) | Ki [10] [nM] | D2 Ki/5-HT2A Ki [9] | D2 Ki/5-HT7 Ki [9] |
| --- | --- | --- | --- | --- | --- | --- | --- | --- | --- | --- | --- | --- | --- | --- |
| 81 | 0.054 | – | – | – | – | CCN(CCN1CCC(c2noc3cc(F)c(C)cc23)CC1)C(=O)[C@H](C)O [Example 13] | 2900 | 0.214 | – | – | – | – | – | – |
| – | <0.05 | 0.018 | 3 | – | – | CCN(CCN1CCC(c2noc3cc(F)ccc23)CC1)C(=O)[C@H](C)O [Example 16, (2S)—N-Ethyl-N-{2-[4-(6-fluoro-1,2-benzoisoxazol-3-yl)piperidin-1-yl]ethyl}-2-hydroxypropanamide] | 4800 | – | – | – | – | – | – | – |
| 66 | <0.05 | 0.0025 | 27 | – | – | CCN(CCN1CCC(c2noc3cc(F)ccc23)CC1)C(=O)CCO [Example 17, N-Ethyl-N-{2-[4-(6-fluoro-1,2-benzoisoxazol-3-yl)piperidin-1-yl]ethyl}-3-hydroxypropanamide] | 2800 | – | – | – | – | – | – | – |
| 62 | <0.05 | 0.016 | 6 | 1.9 | 309 | CCN(CCN1CCC(c2noc3cc(F)ccc23)CC1)S(=O)(=O)CCO [Example 51, N-Ethyl-N-{2-[4-(6-fluoro-1,2-benzoisoxazol-3-yl)piperidin-1-yl]ethyl}-2-hydroxyethane-1-sulfonamide] | 6900 | – | – | – | – | – | – | – |
| 9 | <0.05 | – | – | 3.7 | 52 | CCN(CCN1CCC(c2noc3cc(F)ccc23)CC1)C(=O)C1(O)CCNC1 (centres unmarked) [Example 70] | > 10000 | – | – | – | – | – | – | – |
| 8 | 0.057 | – | – | 10.6 | < 100 | CCN(CCN1CCC(c2noc3cc(F)ccc23)CC1)C(=O)C1(O)CCCN(C(C)=O)C1 (centres unmarked) [Example 72] | 9900 | – | – | – | – | – | – | – |
| 77 | <0.05 | – | – | 6.8 | 138 | CCN(CCN1CCC(c2noc3cc(F)ccc23)CC1)C(=O)C1CN(C(C)=O)CCC1O (centres unmarked) [Example 74] | 6700 | – | – | – | – | – | – | – |
| 80 | <0.05 | – | – | 3.6 | 124 | CCN(CCN1CCC(c2noc3cc(F)ccc23)CC1)C(=O)C1CN(C)CC1O (centres unmarked) [Example 75, N-Ethyl-N-{2-[4-(6-fluoro-1,2-benzoisoxazol-3-yl)piperidin-1-yl]ethyl}-4-hydroxy-1-methylpyrrolidine-3-carboxamide] | 3800 | – | – | – | – | – | – | – |
